The results in this text go back to patent publication US9096615B2, “Bridged bicyclic amino thiazine dioxide compounds as inhibitors of beta-secretase and methods of use thereof” (AMGEN INC., priority 2013, dated 2015).

The target in test [1] is BACE1 (Homo sapiens, UniProt P56817). Briefly: In vitro enzymatic BACE FRET assay. The following applies: average IC50; read-out: BACE1 Enzyme assay IC50. Type of test: biochemical. In outline:
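Fluorescence (excitation 488 nm, […]) from cleavage of quenched peptide substrate (50 nM), reaction run 1 h after 1 h enzyme–inhibitor pre-incubation, then neutralised with Tris. Conditions: 0.2 nM enzyme, pH 4.2 acetate 0.05 M, 10% DMSO final, 100 uM genapol.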

Test [2] has as its system Aβ40 in conditioned medium of cells stably expressing Amyloid Precursor Protein (APP). Briefly: In vitro BACE cell-based assay (HEK cell assay, Aβ40 sandwich ELISA). The following applies: Homo sapiens, HEK293; average IC50; read-out: BACE1 cell assay IC50. In outline: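 IC50 was derived from percent-of-control Aβ40 against concentration, with Aβ40 quantified by time-resolved fluorescence ELISA (pAb40/6E10-biotin, 4 °C incubations). Supernatants were sampled after 24 h of compound exposure (10 points, starting 100 or 10 μM, 0.1% DMSO) of cells stably expressing APP.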
(In general: An ELISA detects its analyte on a solid surface through an enzyme-linked reagent.)

Test [3] concerns the target T1, Cathepsin D (Cat D) (Homo sapiens, UniProt P07339).
T1 construct: made in house; host or cells: CHO cells
Nature of the test: In vitro enzymatic Cathepsin D (Cat D) FRET assay. Type of test: biochemical. The following applies: average IC50; first procedure; read-out: CatD IC50. The method in brief:
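Fluorescence (500 nm excitation, 580 nm emission) was measured after Tris quench of a 1 h cleavage of 20 nM quenched peptide substrate. Before that, 9 nM CHO-expressed human Cat D sat with compound for 1 h at pH 3.5 (0.05 M citrate, 5 mM CHAPS, 10% DMSO final).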

The structures appear in SMILES notation.

Sequence of BACE1 (P56817 46-501, species assumed): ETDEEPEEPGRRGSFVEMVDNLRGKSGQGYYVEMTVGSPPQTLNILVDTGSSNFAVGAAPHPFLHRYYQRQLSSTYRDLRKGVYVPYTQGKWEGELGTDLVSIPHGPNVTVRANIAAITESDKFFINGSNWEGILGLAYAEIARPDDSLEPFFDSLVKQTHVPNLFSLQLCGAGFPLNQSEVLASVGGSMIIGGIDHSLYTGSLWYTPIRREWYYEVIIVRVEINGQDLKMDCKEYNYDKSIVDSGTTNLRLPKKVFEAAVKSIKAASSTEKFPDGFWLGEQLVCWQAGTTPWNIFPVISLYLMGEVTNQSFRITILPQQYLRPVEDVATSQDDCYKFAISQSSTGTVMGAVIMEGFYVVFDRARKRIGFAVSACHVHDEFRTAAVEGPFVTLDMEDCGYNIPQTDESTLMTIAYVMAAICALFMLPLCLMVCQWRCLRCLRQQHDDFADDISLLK
T1 sequence (P07339 65-412, species assumed): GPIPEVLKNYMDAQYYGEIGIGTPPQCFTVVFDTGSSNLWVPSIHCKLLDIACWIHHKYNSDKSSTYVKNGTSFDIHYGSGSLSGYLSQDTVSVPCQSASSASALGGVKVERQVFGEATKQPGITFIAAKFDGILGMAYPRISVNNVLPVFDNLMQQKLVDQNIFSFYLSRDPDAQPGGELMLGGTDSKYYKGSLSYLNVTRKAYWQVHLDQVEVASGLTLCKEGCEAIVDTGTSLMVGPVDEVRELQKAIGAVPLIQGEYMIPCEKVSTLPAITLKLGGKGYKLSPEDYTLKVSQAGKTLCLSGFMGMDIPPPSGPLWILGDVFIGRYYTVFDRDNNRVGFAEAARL

Usually IC50 stands for the midpoint of a concentration-inhibition curve. As to `C[C@]1(c2cc(NC(=O)c3ccc(C#N)cn3)ccc2F)N=C(N)[C@@]2(CF)CC[C@@H]1S2(=O)=O` [Example 111, N-(3-((1S,2R,5R)-4-amino-5-(fluoromethyl)-2-methyl-8,8-dioxido-8-thia-3-azabicyclo[3.2.1]oct-3-en-2-yl)-4-fluorophenyl)-5-cyano-2-pyridinecarboxamide], the IC50 in test [1] was determined as 0.002 µM; in test [2] it was 0.004 µM; in test [3], 957 µM.

As to `C[C@]1(c2cc(NC(=O)c3ccc(C(F)(F)F)cc3F)ccc2F)N=C(N)[C@@]2(C)CC[C@@H]1S2(=O)=O` [Example 121, N-(3-((1S,2R,5R)-4-amino-2,5-dimethyl-8,8-dioxido-8-thia-3-azabicyclo[3.2.1]oct-3-en-2-yl)-4-fluorophenyl)-2-fluoro-4-(trifluoromethyl)benzamide], the IC50 in test [1] is 0.41 µM; in test [2] it was 0.15 µM; in test [3], more than 400 µM.

Regarding `C[C@]12CC[C@H]([C@@](C)(c3cc(NC(=O)c4ccc(C(F)(F)F)cc4F)ccc3F)N=C1N)S2(=O)=O` [Example 122, N-(3-((1R,2R,5S)-4-amino-2,5-dimethyl-8,8-dioxido-8-thia-3-azabicyclo[3.2.1]oct-3-en-2-yl)-4-fluorophenyl)-2-fluoro-4-(trifluoromethyl)benzamide], the IC50 in test [1] is 0.905 µM; in test [2] it was 0.255 µM; in test [3] it was more than 400 µM.

For `COc1ccc(C(=O)Nc2ccc(F)c([C@@]3(C)N=C(N)[C@@]4(C)CC[C@@H]3S4(=O)=O)c2)c(F)c1` [Example 123, N-(3-((1S,2R,5R)-4-amino-2,5-dimethyl-8,8-dioxido-8-thia-3-azabicyclo[3.2.1]oct-3-en-2-yl)-4-fluorophenyl)-2-fluoro-4-methoxybenzamide], the IC50 in test [1] was 0.13 µM; in test [2] it was 0.083 µM; in test [3] it was 1620 µM.

With `COc1ccc(C(=O)Nc2ccc(F)c([C@@]3(C)N=C(N)[C@]4(C)CC[C@H]3S4(=O)=O)c2)c(F)c1` [Example 124, N-(3-((1R,2R,5S)-4-amino-2,5-dimethyl-8,8-dioxido-8-thia-3-azabicyclo[3.2.1]oct-3-en-2-yl)-4-fluorophenyl)-2-fluoro-4-methoxybenzamide], the IC50 in test [1] is 0.588 µM; in test [2], 0.103 µM; in test [3], 4440 µM.

For `C[C@]1(c2cc(NC(=O)c3c(F)cc(Br)cc3F)ccc2F)N=C(N)[C@@]2(C)CC[C@@H]1S2(=O)=O` [Example 125, N-(3-((1S,2R,5R)-4-amino-2,5-dimethyl-8,8-dioxido-8-thia-3-azabicyclo[3.2.1]oct-3-en-2-yl)-4-fluorophenyl)-4-bromo-2,6-difluorobenzamide], the IC50 is 0.103 µM in test [1], 0.065 µM in test [2] and more than 400 µM in test [3].

Consider `C[C@]12CC[C@H]([C@@](C)(c3cc(NC(=O)c4c(F)cc(Br)cc4F)ccc3F)N=C1N)S2(=O)=O` [Example 126, N-(3-((1R,2R,5S)-4-amino-2,5-dimethyl-8,8-dioxido-8-thia-3-azabicyclo[3.2.1]oct-3-en-2-yl)-4-fluorophenyl)-4-bromo-2,6-difluorobenzamide], for which the IC50 was 0.315 µM in test [1], 0.073 µM in test [2] and 2200 µM in test [3].

Consider `C[C@]1(c2cc(NC(=O)c3ccc(C#N)cc3F)ccc2F)N=C(N)[C@@]2(C)CC[C@@H]1S2(=O)=O` [Example 127, N-(3-((1S,2R,5R)-4-amino-2,5-dimethyl-8,8-dioxido-8-thia-3-azabicyclo[3.2.1]oct-3-en-2-yl)-4-fluorophenyl)-4-cyano-2-fluorobenzamide], for which the IC50 in test [1] is 0.056 µM; in test [2], 0.025 µM; in test [3], more than 400 µM.

Consider `C[C@]12CC[C@H]([C@@](C)(c3cc(NC(=O)c4ccc(C#N)cc4F)ccc3F)N=C1N)S2(=O)=O` [Example 128, N-(3-((1R,2R,5S)-4-amino-2,5-dimethyl-8,8-dioxido-8-thia-3-azabicyclo[3.2.1]oct-3-en-2-yl)-4-fluorophenyl)-4-cyano-2-fluorobenzamide], for which the IC50 is 0.123 µM in test [1], 0.037 µM in test [2] and more than 400 µM in test [3].

As for `C[C@]1(c2cc(Nc3ncnc4cc(Cl)cnc34)ccc2F)N=C(N)[C@@]2(C)CC[C@@H]1S2(=O)=O` [Example 130, N-(3-((1S,2R,5R)-4-amino-2,5-dimethyl-8,8-dioxido-8-thia-3-azabicyclo[3.2.1]oct-3-en-2-yl)-4-fluorophenyl)-7-chloropyrido[3,2-d]pyrimidin-4-amine], the values for the IC50 in test [1], in test [2] and in test [3] were 0.005 µM, 0.004 µM and 363 µM, respectively.

Turning to `C[C@]12CC[C@H]([C@@](C)(c3cc(Nc4ncnc5cc(Cl)cnc45)ccc3F)N=C1N)S2(=O)=O` [Example 131, N-(3-((1R,2R,5S)-4-amino-2,5-dimethyl-8,8-dioxido-8-thia-3-azabicyclo[3.2.1]oct-3-en-2-yl)-4-fluorophenyl)-7-chloropyrido[3,2-d]pyrimidin-4-amine], the IC50 is 0.029 µM in test [1], 0.018 µM in test [2] and 482 µM in test [3].

`COc1cnc2c(Nc3ccc(F)c([C@@]4(C)N=C(N)[C@]5(C)CC[C@H]4S5(=O)=O)c3)ncnc2c1` [Example 133, N-(3-((1R,2R,5S)-4-amino-2,5-dimethyl-8,8-dioxido-8-thia-3-azabicyclo[3.2.1]oct-3-en-2-yl)-4-fluorophenyl)-7-methoxypyrido[3,2-d]pyrimidin-4-amine]: the IC50 in test [1] was found to be 0.096 µM; in test [2], 0.026 µM; in test [3] it was 1160 µM.

With `CC#CCOc1cnc2c(Nc3ccc(F)c([C@@]4(C)N=C(N)[C@@]5(C)CC[C@@H]4S5(=O)=O)c3)ncc(F)c2c1` [Example 134, N-(3-((1S,2R,5R)-4-amino-2,5-dimethyl-8,8-dioxido-8-thia-3-azabicyclo[3.2.1]oct-3-en-2-yl)-4-fluorophenyl)-3-(2-butyn-1-yloxy)-5-fluoro-1,7-naphthyridin-8-amine], the IC50 in test [1] came to 0.001 µM; in test [2] it was 0.004 µM; in test [3] it was 1610 µM.

For `CC#CCOc1cnc2c(Nc3ccc(F)c([C@@]4(C)N=C(N)[C@]5(C)CC[C@H]4S5(=O)=O)c3)ncc(F)c2c1` [Example 135, N-(3-((1R,2R,5S)-4-amino-2,5-dimethyl-8,8-dioxido-8-thia-3-azabicyclo[3.2.1]oct-3-en-2-yl)-4-fluorophenyl)-3-(2-butyn-1-yloxy)-5-fluoro-1,7-naphthyridin-8-amine], the IC50 was determined as 0.003 µM in test [1], 0.021 µM in test [2] and 614 µM in test [3].

Consider `C[C@]12CC[C@H]([C@@](C)(c3cc(Nc4ncc(F)c5cc(OCC6CC6)cnc45)ccc3F)N=C1N)S2(=O)=O` [Example 136, N-(3-((1R,2R,5S)-4-amino-2,5-dimethyl-8,8-dioxido-8-thia-3-azabicyclo[3.2.1]oct-3-en-2-yl)-4-fluorophenyl)-3-(cyclopropylmethoxy)-5-fluoro-1,7-naphthyridin-8-amine], for which the IC50 in test [1] came out at 0.061 µM; in test [2], 0.253 µM; in test [3] it was 5340 µM.

In the case of `C[C@]1(c2cc(Nc3ncc(F)c4cc(OCC5CC5)cnc34)ccc2F)N=C(N)[C@@]2(C)CC[C@@H]1S2(=O)=O` [Example 137, N-(3-((1S,2R,5R)-4-amino-2,5-dimethyl-8,8-dioxido-8-thia-3-azabicyclo[3.2.1]oct-3-en-2-yl)-4-fluorophenyl)-3-(cyclopropylmethoxy)-5-fluoro-1,7-naphthyridin-8-amine], the IC50 in test [1] was 0.003 µM; in test [2], 0.0654 µM; in test [3], more than 400 µM.

For `CC#CCOc1ccc(C(=O)Nc2ccc(F)c([C@@]3(C)N=C(N)[C@@]4(C)CC[C@@H]3S4(=O)=O)c2)c(F)c1` [Example 138, N-(3-((1S,2R,5R)-4-amino-2,5-dimethyl-8,8-dioxido-8-thia-3-azabicyclo[3.2.1]oct-3-en-2-yl)-4-fluorophenyl)-4-(2-butyn-1-yloxy)-2-fluorobenzamide], the IC50 in test [1] was 0.061 µM; in test [2], 0.122 µM; in test [3], more than 400 µM.

As for `COC[C@]12CC[C@H]([C@@](C)(c3cc(Nc4ncnc5cc(Cl)cnc45)ccc3F)N=C1N)S2(=O)=O` [Example 141, N-(3-((1R,2R,5S)-4-amino-5-(methoxymethyl)-2-methyl-8,8-dioxido-8-thia-3-azabicyclo[3.2.1]oct-3-en-2-yl)-4-fluorophenyl)-7-chloropyrido[3,2-d]pyrimidin-4-amine], the IC50 came out at 0.408 µM in test [1], 0.327 µM in test [2] and 1180 µM in test [3].

As for `COC[C@]12CC[C@H]([C@@](C)(c3cc(NC(=O)c4ncc(Cl)cc4C)ccc3F)N=C1N)S2(=O)=O` [Example 142, N-(3-((1R,2R,5S)-4-amino-5-(methoxymethyl)-2-methyl-8,8-dioxido-8-thia-3-azabicyclo[3.2.1]oct-3-en-2-yl)-4-fluorophenyl)-5-chloro-3-methyl-2-pyridinecarboxamide], the IC50 in test [1] was 0.093 µM; in test [2] it was 0.482 µM; in test [3], more than 400 µM.
